Source: patent US3954227A, “Pharmaceutical compositions containing 1-(2',3'-dimethylphenoxy)-3-tert. butylamino-2-propanol or pharmaceutically acceptable salt thereof for treating or preventing coronary disorders” (Teikoku Hormone Mfg. Co., Ltd., priority 1969, dated 1976)
Entries after “also recorded” stand apart in the source; their conditions may differ. Like-named read-outs stand apart in the source and are kept apart here.

Experiments:
[1] = system: mouse; experiment: Behavior analysis, mouse (simplified Irwin's multidimensional method); settings: 4 hours observation
Excerpt: (§1) The effects of chemicals on the behavior of mouse was examined by a simplified method of Irwin's multidimensional behavior analysis method.

[2] = system: rat; experiment: Behavior analysis, rat; settings: 4 hours observation
Protocol: (§2) The chemical to be tested was administered orally, and observations of the behaviors of the rats were carried out for 4 hours after administration of the chemical.
One group consisted of three rats.

[3] = system: angina pectoris patients; experiment: Clinical test: bicycle ergometer exercise test in angina pectoris patients, double blind cross over; format: in vivo, human; design: Change in heart rate b)-a): unit not given here; settings: for Change in heart rate b)-a) / Exercise time / a) Heart rate before exercise / b) Heart rate after exercise: compound A 5 mg twice daily, PROPRANOLOL 40 mg × 2, third day; for b) Heart rate after exercise: in beats/min (unit assumed)
Protocol: A test was then conducted on the third day 3 hours after the first administration. […] The test was carried out by the double blind method with a cross over test having a rest period of 10 days. The test method consisted of an exercise test utilizing a bicycle ergometer. After measuring the heart rates of the patients before starting the test, the patients were made to pedal the bicycle ergometer until they were seized with an attack of anginal pain, the effectiveness of the chemicals being judged by the time up to the attack and the heart rate at that time.

[4] = oral; cited from earlier work
[5] = system: heart rate; experiment: Heart rate drop at the dosage required for manifestation of beta-adrenergic blocking activity, rat; format: in vivo
[6] = system: heart rate; experiment: Heart rate drop at the dosage required for manifestation of beta-adrenergic blocking activity, dog; format: in vivo
[7] = system: dog; experiment: Degree of safety (ratio of side reaction or lethal dosage to effective dosage), dog; settings: in vivo, po
[8] = system: rat; settings: orally
[9] = system: beta-adrenergic (heart rate increase due to ISOPROTERENOL); experiment: Beta-adrenergic blocking activity in the case of intravenous injection, rat (antagonism to heart rate increase due to ISOPROTERENOL); format: in vivo, rat (Wistar)
Protocol: 1. Beta-adrenergic blocking activity in the case of intravenous injection (Antagonism to heart rate increase due to ISOPROTERENOL)
a. Male rats of Wistar strain weighing ca. 300 grams were anesthetized with PENTOBARBITAL-Na (60 mg/kg i.p.), after which they are secured in a supine position. The electrocardiogram was registered in the second lead, on a polygraph. ISOPROTERENOL (0.1 μg/kg) was administered through the left femoral vein at 7-minute intervals.
The heart rate increase for the first two times was averaged and used as control.
The antagonistic chemical was intravenously injected from the third time the ISOPROTERENOL was administered, the administration being performed cumulatively and sequentially in the amounts of respectively 6.25, 25, 100 . . . μg/kg invariably at a point 2 minutes before each administration of ISOPROTERENOL until the effects thereof practically disappeared.

[10] = in vivo
[11] = system: mouse; settings: in vivo, 240 min
Excerpt: as §1

[12] = system: heart rate; experiment: Effect on heart rate (general statements); format: in vivo
[13] = system: rat; experiment: Degree of safety (ratio of side reaction or lethal dosage to effective dosage), rat; settings: in vivo, po
[14] = system: rat; settings: in vivo, 240 min
Protocol: as §2
One group consisted of three rats.

[15] = system: dog; settings: orally
[16] = system: beta-adrenergic; experiment: Beta-adrenergic blocking activity of metabolites (Table 2); format: in vivo; settings: for Beta-adrenergic blocking activity compared with PROPRANOLOL, in words: in vivo
[17] = system: heart rate; experiment: Change in heart rate at the dosage required for manifestation of the beta-adrenergic blocking activity (Table 2); format: in vivo

Q: With `CC(C)NCC(O)COc1cccc2ccccc12` (stereo not shown) [PROPRANOLOL, 1-naphthoxy-3-isopropylamino-2-propanol, reference compound] as the compound, how does the “Dose at which effects appeared from the standpoints of behavior analysis (PO)” value (“Dose at which effects appeared” for short) [1] read?
A: The value was 100 mg.

Q: And the “Dose at which effects appeared” value [2]?
A: Its value is 25 mg.

Q: What about the “Change in heart rate b)-a)” value ([3]; Case No. 1) of the same compound?
A: The value was 35.

Q: And the Exercise time ([3]; Case No. 1)?
A: The Exercise time was 134 s.

Q: What about the a) Heart rate before exercise ([3]; Case No. 1) of the same compound?
A: Its a) Heart rate before exercise is 74 beats/min.

Q: What about the “b) Heart rate after exercise” value ([3]; Case No. 1) of the same compound?
A: Its value is 109.

Q: And the “Change in heart rate b)-a)” value ([3]; Case No. 2)?
A: Its value is 27.

Q: And the Exercise time ([3]; Case No. 2)?
A: The Exercise time was 146 s.

Q: And the a) Heart rate before exercise ([3]; Case No. 2)?
A: The a) Heart rate before exercise was 69 beats/min.

Q: What about the “b) Heart rate after exercise” value ([3]; Case No. 2) of the same compound?
A: The value was 96.

Q: What about the “Change in heart rate b)-a)” value ([3]; Case No. 3) of the same compound?
A: Its value is 27.

Q: And the Exercise time ([3]; Case No. 3)?
A: The Exercise time was 102 s.

Q: What about the a) Heart rate before exercise ([3]; Case No. 3) of the same compound?
A: Its a) Heart rate before exercise is 75 beats/min.

Q: And the “b) Heart rate after exercise” value ([3]; Case No. 3)?
A: The value was 102.

Q: And the “Change in heart rate b)-a)” value ([3]; Mean of 3 cases)?
A: The value was 29.7.

Q: And the Exercise time ([3]; Mean of 3 cases)?
A: The Exercise time was 127.3 s.

Q: What about the a) Heart rate before exercise ([3]; Mean of 3 cases) of the same compound?
A: The a) Heart rate before exercise was 72.7 beats/min.

Q: What about the “b) Heart rate after exercise” value ([3]; Mean of 3 cases) of the same compound?
A: The value was 102.3.

Q: What about the “Suppression of the heart rate vs placebo, in words” value ([3]; as compared with the placebo) of the same compound?
A: The value was “marked suppression of the heart rate”.

Q: And the “Metabolized when orally administered” value [4]?
A: Its value is 90%.

Q: With `Cc1cccc(OCC(O)CNC(C)(C)C)c1C` (stereo not shown) [compound A, 1-(2',3'-dimethylphenoxy)-3-tert. butylamino-2-propanol] as the compound, how does the “Heart rate % drop at the dosage required for manifestation of beta-adrenergic blocking activity [ED50]” value (“Heart rate % drop at the dosage required” for short) ([5]; PO) read?
A: The value was 4%.

Q: What about the “Heart rate drop at the dosage required for manifestation of beta-adrenergic blocking activity [ED50]” value (from here on “Heart rate drop at the dosage required”) ([5]; PO) of the same compound?
A: The value was 15 No/min.

Q: What about the “Heart rate % drop at the dosage required” value ([5]; iv) of the same compound?
A: Its value is 15%.

Q: What about the “Heart rate drop at the dosage required” value ([5]; iv) of the same compound?
A: The value was 55 No/min.

Q: What about the “Heart rate % drop at the dosage required” value ([6]; PO) of the same compound?
A: Its value is 2%.

Q: What about the “Heart rate drop at the dosage required” value ([6]; PO) of the same compound?
A: Its value is 3 No/min.

Q: And the “Heart rate % drop at the dosage required” value ([6]; iv)?
A: The value was 16%.

Q: And the “Heart rate drop at the dosage required” value ([6]; iv)?
A: The value was 23 No/min.

Q: What about the “Degree of safety, times that of PROPRANOLOL” value [7] of the same compound?
A: Its value is “more than 16 times”.

Q: What about the “Change in heart rate b)-a)” value ([3]; Case No. 1) of the same compound?
A: The value was 17.

Q: What about the Exercise time ([3]; Case No. 1) of the same compound?
A: The Exercise time was 187 s.

Q: And the a) Heart rate before exercise ([3]; Case No. 1)?
A: Its a) Heart rate before exercise is 81 beats/min.

Q: And the “b) Heart rate after exercise” value ([3]; Case No. 1)?
A: Its value is 98.

Q: And the “Change in heart rate b)-a)” value ([3]; Case No. 2)?
A: The value was 20.

Q: What about the Exercise time ([3]; Case No. 2) of the same compound?
A: The Exercise time was 203 s.

Q: And the a) Heart rate before exercise ([3]; Case No. 2)?
A: The a) Heart rate before exercise was 76 beats/min.

Q: And the “b) Heart rate after exercise” value ([3]; Case No. 2)?
A: Its value is 96.

Q: And the “Change in heart rate b)-a)” value ([3]; Case No. 3)?
A: Its value is 19.

Q: What about the Exercise time ([3]; Case No. 3) of the same compound?
A: Its Exercise time is 144 s.

Q: And the a) Heart rate before exercise ([3]; Case No. 3)?
A: The a) Heart rate before exercise was 84 beats/min.

Q: What about the “b) Heart rate after exercise” value ([3]; Case No. 3) of the same compound?
A: Its value is 103.

Q: What about the “Change in heart rate b)-a)” value ([3]; Mean of 3 cases) of the same compound?
A: The value was 18.7.

Q: And the Exercise time ([3]; Mean of 3 cases)?
A: The Exercise time was 178.0 s.

Q: And the a) Heart rate before exercise ([3]; Mean of 3 cases)?
A: Its a) Heart rate before exercise is 80.3 beats/min.

Q: And the “b) Heart rate after exercise” value ([3]; Mean of 3 cases)?
A: Its value is 99.0.

Q: What about the “Exercise time up to attack with anginal pains vs placebo, in words” value ([3]; as compared with the placebo) of the same compound?
A: Its value is “increases the exercise time up to the time the attack with anginal pains takes place”.

Q: And the “Increase in the heart rate due to the exercise vs placebo, in words” value ([3]; as compared with the placebo)?
A: Its value is “suppresses the increase in the heart rate due to the exercise”.

Q: What about the “Suppression of the heart rate vs placebo, in words” value ([3]; as compared with the placebo) of the same compound?
A: The value was “practically no suppression of the heart rate”.

Q: And the “Effectiveness compared with PROPRANOLOL, in words” value ([3]; human, in vivo)?
A: The value was “far greater than that of PROPRANOLOL”.

Q: What about the LD50 [8] of the same compound?
A: The LD50 was 580 mg.

Q: What about the “Relative effectiveness iv (beta-adrenergic blocking activity, PROPRANOLOL = 1.0)” value [9] of the same compound?
A: Its value is 2.

Q: And the “Degree of safety compared with the other similar compounds” value [10]?
A: Its value is 7-20 times.

Q: What about the “Dose at which effects appeared” value [11] of the same compound?
A: Its value is 200 mg.

Q: And the “Effect on heart rate, in words” value ([12]; injection)?
A: Its value is “high decrease in heart rate; also recorded: a drop in heart rate likewise takes place”.

Q: And the “Effect on heart rate, in words” value ([12]; oral / intestinal absorption route)?
A: The value was “the normal heart rate is hardly affected at all; also recorded: practically no change in heart rate; also recorded: without hardly any effect on the heart rate”.

Q: And the “Degree of safety, times that of PROPRANOLOL” value [13]?
A: Its value is “about 14 times”.

Q: And the “Dose at which effects appeared” value [14]?
A: Its value is 50 mg.

Q: What about the LD50 [15] of the same compound?
A: Its LD50 is 300 mg.

Q: Which results are given for `Cc1c(O)ccc(OCC(O)CNC(C)(C)C)c1C` (stereo not shown) [compound B]?
A: Relative beta-adrenergic blocking effectiveness as compared to PROPRANOLOL ([16]; i.v.): 5.5; Beta-adrenergic blocking activity compared with PROPRANOLOL, in words [16]: higher beta-adrenergic blocking activity than PROPRANOLOL; Relative beta-adrenergic blocking effectiveness as compared to PROPRANOLOL ([16]; p.o.): 2.5; Action of suppressing the heart rate compared with PROPRANOLOL, in words ([17]; in vivo): lower action of suppressing the heart rate and lesser side reactions; Change in heart rate at the dosage required for manifestation of the beta-adrenergic blocking activity ([17]; in vivo): +10 No./min.; Change in heart rate, % increase, at the dosage required for manifestation of the beta-adrenergic blocking activity ([17]; increase): 3%; Change in heart rate by injection, in words [17]: small

Q: With `Cc1c(CO)cccc1OCC(O)CNC(C)(C)C` (stereo not shown) [compound C] as the compound, how does the “Relative beta-adrenergic blocking effectiveness as compared to PROPRANOLOL” value ([16]; i.v.) read?
A: Its value is 4.5.

Q: What about the “Beta-adrenergic blocking activity compared with PROPRANOLOL, in words” value [16] of the same compound?
A: The value was “higher beta-adrenergic blocking activity than PROPRANOLOL”.

Q: What about the “Relative beta-adrenergic blocking effectiveness as compared to PROPRANOLOL” value ([16]; p.o.) of the same compound?
A: The value was 4.0.

Q: And the “Action of suppressing the heart rate compared with PROPRANOLOL, in words” value ([17]; in vivo)?
A: The value was “lower action of suppressing the heart rate and lesser side reactions”.

Q: What about the “Change in heart rate by injection, in words” value [17] of the same compound?
A: The value was “small”.
